Source: patent publication US20240261418A1, “SOS1 DEGRADING AGENT AND PREPARATION METHOD THEREFOR AND APPLICATION THEREOF” (SHANGHAI LEADINGTAC PHARMACEUTICAL CO. LTD., priority 2021, published 2024)
pIC50: −log10 of the molar value.

Key:
[1] = system: KRAS G12C mutant human non-small cell lung cancer cells NCI-H358; assay: 3D cell proliferation inhibition assay, NCI-H358; format: cell-based; conditions: NCI-H358, 168 h, 7 days, CTG
Source text: (§1) Test Example 4: 3D Cell Proliferation Inhibition Assay
(§2) The inhibitory effect of the compounds on the proliferation of 3D cells was investigated on KRAS G12C mutant human non-small cell lung cancer cells NCI-H358 (ATCC or Stem Cell Bank, Chinese Academy of Sciences), KRAS G12D mutant human metastatic pancreatic adenocarcinoma cells AsPC-1 (ATCC), KRAS G12V mutant human lung adenocarcinoma cells NCI-H441 (ATCC), and KRAS G13D mutant human colorectal adenocarcinoma epithelial cells DLD-1 (ATCC). The specific procedures were as follows:
(§3) 200 nL of compound solution diluted in a gradient was added to corresponding microwells of a 384-well low-adsorption microwell plate (Corning, 3657) using an Echo sonic pipetting system (Labcyte, Echo 550), so that the final concentration of the test compound in the reaction system was in a range of 20000 nM-0.008 nM. Then 40 μL of cells at a certain density were added to the corresponding microplate. In addition to test wells for the test compounds, both a DMSO control well and a medium control well were set, with the DMSO control well containing DMSO and cells and the medium well containing only medium. […] The plate was incubated at room temperature for 30 min and read on a microplate reader EnVision using the chemiluminescence program. […]

[2] = system: KRAS G12D mutant human metastatic pancreatic adenocarcinoma cells AsPC-1; assay: 3D cell proliferation inhibition assay, AsPC-1; format: cell-based; conditions: ASPC1, 168 h, 7 days, CTG
Source text: as §1, §2, §3

[3] = target: T1, KRAS-G12C/SOS1 (Homo sapiens, UniProt Q07889); assay: KRAS-G12C/SOS1 binding assay (HTRF); conditions: inhibition of KRAS-G12C/SOS1 binding
T1 construct: purchased Cisbio 63ADK000CB16PEG
T1 sequence (Q07889 1-1333): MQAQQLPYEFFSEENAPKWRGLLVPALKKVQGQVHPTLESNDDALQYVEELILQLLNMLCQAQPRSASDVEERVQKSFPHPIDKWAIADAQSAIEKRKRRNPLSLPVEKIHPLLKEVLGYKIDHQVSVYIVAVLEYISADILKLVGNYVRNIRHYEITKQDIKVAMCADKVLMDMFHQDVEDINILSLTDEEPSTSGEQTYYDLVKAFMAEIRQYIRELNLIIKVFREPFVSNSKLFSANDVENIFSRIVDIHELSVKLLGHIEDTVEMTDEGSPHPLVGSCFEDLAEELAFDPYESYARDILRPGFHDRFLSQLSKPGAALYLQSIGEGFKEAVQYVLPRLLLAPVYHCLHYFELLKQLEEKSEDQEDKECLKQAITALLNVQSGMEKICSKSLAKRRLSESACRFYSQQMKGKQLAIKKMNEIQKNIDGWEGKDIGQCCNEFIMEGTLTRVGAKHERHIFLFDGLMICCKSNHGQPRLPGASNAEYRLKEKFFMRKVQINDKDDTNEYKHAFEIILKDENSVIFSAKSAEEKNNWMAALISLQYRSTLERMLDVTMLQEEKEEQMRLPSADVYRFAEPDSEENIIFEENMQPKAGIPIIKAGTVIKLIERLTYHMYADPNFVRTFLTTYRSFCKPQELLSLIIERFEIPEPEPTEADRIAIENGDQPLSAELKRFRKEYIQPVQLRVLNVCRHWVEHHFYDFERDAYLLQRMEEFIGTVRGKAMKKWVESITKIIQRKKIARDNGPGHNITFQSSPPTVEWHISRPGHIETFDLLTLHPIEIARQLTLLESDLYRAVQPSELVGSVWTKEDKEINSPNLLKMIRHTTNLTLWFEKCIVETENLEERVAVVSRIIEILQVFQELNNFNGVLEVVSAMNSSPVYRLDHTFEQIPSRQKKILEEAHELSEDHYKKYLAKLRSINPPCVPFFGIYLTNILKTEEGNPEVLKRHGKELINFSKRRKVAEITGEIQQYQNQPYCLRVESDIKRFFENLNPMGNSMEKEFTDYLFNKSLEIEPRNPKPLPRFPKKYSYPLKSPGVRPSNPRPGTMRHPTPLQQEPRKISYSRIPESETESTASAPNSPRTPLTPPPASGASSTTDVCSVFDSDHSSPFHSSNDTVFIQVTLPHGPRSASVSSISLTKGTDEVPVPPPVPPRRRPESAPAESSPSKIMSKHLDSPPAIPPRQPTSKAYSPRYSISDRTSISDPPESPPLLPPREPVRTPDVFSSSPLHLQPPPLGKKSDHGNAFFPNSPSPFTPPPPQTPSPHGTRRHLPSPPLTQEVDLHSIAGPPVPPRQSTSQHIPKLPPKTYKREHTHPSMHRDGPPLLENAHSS
Experimental: Test Example 1: KRAS-G12C/SOS1 Binding Assay
The following method was used to determine the extent of inhibition of KRAS-G12C/SOS1 binding by the preferred compounds of the present invention under in vitro conditions. In this method, the competitive inhibition of KRAS-G12C/SOS1 binding by the preferred compounds was assayed by the homogeneous time-resolved fluorescence (HTRF) technology using the KRAS-G12C/SOS1 binding assay kit (Cisbio, 63ADK000CB16PEG).
The experimental procedures were as follows (refer to the kit instructions for details): the compounds of the present invention were each firstly dissolved in DMSO at a concentration of 20 mM, and then diluted in an equal gradient with a buffer in the kit, so that the final concentrations of the test compounds in the reaction system were in a range of 10000 nM-0.04 nM, and the final concentration of DMSO was 0.5%. 2 μL of the compounds were each incubated with 4 μL of 1×Tag1-SOS1, 4 μL of 1×Tag2-KRAS-G12C (containing 10 μM guanosine triphosphate, GTP) at 25° C. for 15 min. Then 5 μL of 1×Anti-Tag1-Tb3+ and 5 μL of 1×Anti-Tag2-XL665 were added to the reaction system, and the mixture was incubated on ice for 3 h. After the incubation, the fluorescence intensity of each well was measured at the excitation wavelength of 337 nm, the fluorescence intensity of each well was read at the emission wavelengths of 620 nm and 665 nm on a microplate reader EnVision (PerkinElmer, 2105) in an HTRF mode, and the Ratio value was calculated by the formula Ratio=(665 nm/620 nm)×[…]. The inhibition rates of the compounds at each concentration were calculated by comparing the fluorescence intensity ratio with that of the control group, and then nonlinear curve fitting was performed by GraphPad Prism 8 in the logarithmic concentration-inhibition rate to obtain the IC50 values of the compounds, as shown in Table 1.

Row | pIC50 [1] | pIC50 [2] | pIC50 [3] | SMILES
1 | ≥ 7.82 | 7.52 to 7.82 | ≥ 7.82 | COc1cc2nc(C)nc(N[C@H](C)c3cc(-c4c(Cl)cccc4CN(C)C)cs3)c2cc1[C@H]1CC[C@H](C(=O)N2CCN(CC3CCC4(CC3)CCN(C(=O)c3ccc(Cl)c(N5CCC(=O)NC5=O)c3)CC4)CC2)CC1 [Example 1, 1-(2-chloro-5-(9-((4-((1R,4R)-4-(4-(((R)-1-(4-(2-chloro-6-((dimethylamino)methyl)phenyl)thien-2-yl)ethyl)amino)-7-methoxy-2-methylquinazolin-6-yl)cyclohexane-1-carbonyl)piperazin-1-yl)methyl)-3-azaspiro[5.5]undecane-3-carbonyl)phenyl)dihydropyrimidine-2,4(1H,3H)-dione]
2 | ≥ 7.82 | 6.00 to 7.00 | ≥ 7.82 | COc1cc2nc(C)nc(N[C@H](C)c3cc(-c4c(Cl)cccc4CN(C)C)cs3)c2cc1[C@H]1CC[C@H](C(=O)N2CCC(CCOCC3CCN(C(=O)c4ccc(Cl)c(N5CCC(=O)NC5=O)c4)CC3)CC2)CC1 [Example 5, 1-(2-chloro-5-(4-((2-(1-((1R,4R)-4-(4-(((R)-1-(4-(2-chloro-6-((dimethylamino)methyl)phenyl)thien-2-yl)ethyl)amino)-7-methoxy-2-methylquinazolin-6-yl)cyclohexane-1-carbonyl)piperidin-4-yl)ethoxy)methyl)piperidine-1-carbonyl)phenyl)dihydropyrimidine-2,4(1H,3H)-dione]
